The subject of one data set is diamondback moth. As to the kind of experiment: whole plant or invertebrate. The format is in vivo. The settings on record: Plutella xylostella, foliar. Put shortly:
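Cabbage leaf discs sprayed with compound in 50% acetone/water with 0.05% Tween 20, air-dried, then infested with second-instar larvae. Held at 25 °C under 16 h light/8 h dark; mortality from dead/(live+dead) counts after 3 days, two replicates.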

The test system of data set [1] is house fly crude enzyme extract. As to the kind of experiment: In vitro metabolic test using house fly crude enzyme extract. The format is in vitro ADME. The settings on record: house fly crude enzyme extract with NADP+ regenerating system, 25° C., 40 hours, LC/MS. How it is done: As mentioned in Pest Management Science, 59(3), 347-352 (2003) and the Journal of Pesticide Science, 29(2), 110-116 (2004), imidacloprid is known to be inactivated by incurring oxidative metabolism, which is thought to be one mechanism of acquiring resistance to this agent. The following experiment was carried out to confirm the effects in pests which have acquired such resistance.
An amount of 10 mL of a potassium phosphate buffer solution (pH 7.4, containing 1 mM EDTA) was added to adult house flies (0.645 g), and the flies were thoroughly homogenized in a Physcotron (Niti-On Medical and Physical Instruments Manufacturing Co.). The homogenate was then centrifuged at 10,000 g for 15 minutes. The resulting supernatant was additionally centrifuged at 100,000 g for 60 minutes, giving a precipitate. The precipitate was dissolved in 1 mL of a potassium phosphate buffer, and the resulting solution was used as the crude enzyme extract. The enzyme extraction operations were all carried out on ice or at 4° C.
The reagents were mixed in the following proportions within a 1.5 mL tube, and the reaction was effected at 25° C. for 40 hours. Following the reaction, 1 mL of acetone was added and the mixture was stirred, following which the precipitate that formed was centrifuged at 12,000 rpm for 5 minutes. […]

In another data set the test system is rice water weevil. As to the kind of experiment: Rice water weevil control test (soil drenching treatment). It is filed as in vivo. The settings on record: 0.1 mg/seedling soil drenching of rice seedlings, adults, 3 days after release. The procedure:
Rice seedlings grown in pots were subjected to soil drenching treatment with solutions of the inventive compounds at a predetermined concentration prepared to 10% acetone/water. Two days after treatment, five adult rice water weevils were released onto each seedling. The seedlings and insects were then held in an incubation chamber at 25° C. (16-hour period of light, 8-hour dark period). Three days after released, the numbers of live and dead insects were counted, and the mortality was calculated from the following formula. The test was carried out as two replications. Mortality (%)=[number of dead insects/(number of live insects+number of dead insects)]×100

For another data set, the system named is green peach aphid. The data set can be described thus: Green peach aphid control test (foliar application). The format is in vivo. Particulars: Myzus persicae, in Brassica oleracea, 72 h. The source says:
Leaf discs 2.8 cm in diameter were cut from cabbage plants grown in pots, and four adult aphids were released onto each disc. One day later, the adults were removed, and the number of first-instar larvae that had been deposited on each leaf disc was adjusted to 10. Next, the leaf discs parasitized by these first instar larvae were sprayed with solutions of the inventive compounds at a predetermined concentration prepared to 50% acetone/water (containing 0.05% Tween 20). The treated leaf discs were air dried, following which covers were placed over the Petri dishes and the leaf discs and larvae were held in an incubation chamber at 25° C. (16-hour period of light, 8-hour dark period). Three days after released, the numbers of live and dead insects were counted, and the mortality was calculated from the following formula. This was a two-replication test. Mortality (%)=[number of dead insects/(number of live insects+number of dead insects)]×100

The subject of a further data set is small brown planthopper. The data set can be described thus: whole plant or invertebrate. It is filed as in vivo. The settings on record: Laodelphax striatellus, in Triticum aestivum, 96 h. In short, it runs like this: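 Roots of 48-h wheat seedlings took up compound in 10% acetone/water for 72 h, then ten second-instar larvae were released per seedling and held at 25 °C (16 h light/8 h dark). Mortality counted four days after release; two replications.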

The next data set deals with western flower thrips. The data set can be described thus: whole plant or invertebrate. The format is in vivo. Particulars: Frankliniella occidentalis, foliar. Put shortly:
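Bean leaf discs sprayed with compound in 50% acetone/water with 0.05% Tween 20, air dried, then infested with first-instar larvae. Held at 25° C under 16 h light/8 h dark; live and dead counted after 3 days to give % mortality, two replicates.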

Setting [2] is: read-out: Insecticidal effects (mortality), diamondback moth second-instar larvae.
[3] abbreviates: read-out: Insecticidal effects (mortality), small brown planthopper second-instar larvae.
[4] abbreviates: read-out: Insecticidal effects (mortality), western flower thrips first-instar larvae.

One compound from US10085449B2, “N-[1-((6-chloropyridin-3-yl)methyl)pyridin-2(1H)-ylidene]-2,2,2- trifluoroacetamide for control of agricultural/horticultural pests” (priority 2010, dated 2018) can be followed below.

Like-named read-outs stand apart in the source and are kept apart here.

As to `O=C(N=c1ccccn1Cc1ccc(Cl)nc1)C(F)(F)F` [Compound 212, N-[1-((6-chloropyridin-3-yl)methyl)pyridin-2(1H)-ylidene]-2,2,2-trifluoroacetamide], in the data set with diamondback moth (setting [2]), the mortality – broadly, the share of the test organisms that died – at 20 ppm was determined as 100%; the mortality at 100 ppm was determined as 100%; the mortality at 500 ppm is 100%. In the data set with diamondback moth (in Brassica oleracea, 72 h), this compound had a mortality at 100 ppm of no less than 80% and a mortality at 500 ppm of no less than 80%. In addition, the “Sum of the surface area percentages for the metabolites” value in data set [1] worked out at 0.08%. In the data set on rice water weevil, the Mortality entry is listed as “at least 80%”. Also, the mortality at 100 ppm with green peach aphid is no less than 80%. In the data set on small brown planthopper, this compound gave a mortality at 20 µg/seedling of no less than 80%. Also, in the data set on small brown planthopper (setting [3]), the mortality at 0.0078 mg/seedling came to 50%, the mortality at 0.016 mg/seedling was found to be 50%, the mortality at 0.031 mg/seedling stood at 100% and the mortality at 0.063 mg/seedling came out at 100%. In the data set on small brown planthopper (setting [3]), the mortality at 0.125 mg/seedling was found to be 100%, the mortality at 0.25 mg/seedling is 100%, the mortality at 0.5 mg/seedling was 100% and the mortality at 2 mg/seedling was 100%. Also, in the data set with small brown planthopper (setting [3]), the mortality at 20 mg/seedling turned out to be 100%. Further, in the data set on western flower thrips (72 h), the mortality at 100 ppm is no less than 80% and the mortality at 500 ppm is no less than 80%. Besides, in the data set with western flower thrips (setting [4]), the mortality at 20 ppm worked out at 65%, the mortality at 100 ppm was found to be 100% and the mortality at 500 ppm was determined as 100%.
